Data as given in patent EP0345251B1 (priority 1986, dated 1988).

Assays:
[1] = Mitozantrone toxicity in mice, with and without Cronassial; type: in vivo, Male Swiss Schneider mice; conditions: host SN
Procedure: (§1) Toxicity acute and chronic. Male Swiss Schneider mice with a body weight of 25-30g were used for these experiments. Mice were usually kept in groups of not more than 8 in standard cages. Food and water were supplied ad libidum. The animals were kept in experimental rooms under closely controlled conditions. They were weighed daily. For acute vincristine toxicity in chicks, 48 hour old SPF chicks were used.
(§2) Cronassial®. A solution of this substance, which is a mixture of four gangliosides, was prepared by the addition of a volume of sterile distilled water sufficient to give a concentration of 200 mg/kg in a volume of 0.2 ml. This dose was given to mice of approximately 20g.
(§3) Mitozantrone was made up in an appropriate manner. It was given in a volume of 0.2ml when the injections were given intraperitoneally but when given by another route, the volumes given were indicated in the appropriate Table.

[2] = Mitozantrone toxicity in mice bearing S180, with and without Cronassial; type: in vivo, Male Swiss Schneider mice; conditions: chronic, host SN (+S180), MTZ 5 mg/kg ip days 3.4.5
Procedure: as §1
(§4) Sarcoma S180. This tumour has been transplanted in the same strain of mouse for more than 10 years.
(§5) Transplantation was done by subcutaneous inoculation of 0.1 ml of a tumour mash made by finely mincing viable tumour tissue and passing it repeatedly through a 26 gauge needle into a sterile Petri dish. 0.1 ml of penicillin (20,000 m/ml) and streptomycin (20,000 m/ml) were added to the mash, as well as neomycin (5 mgs).
as §3

leukaemia L1210 = assay: Antitumour activity against leukaemia L1210 (survival); type: in vivo, BDF₁ mice; conditions: for SURVIVAL (mean days) / SURVIVORS No. at 60 d: in combination CRON 200 mg/kg, CR same as MTZ
Procedure: Antitumour effects. Male Swiss Schneider mice of 27g body weight were used for the sarcoma S180 experiments: female C₅₇Bl mice of 20g body weight were used for the B16 melanoma experiments; […]; and C₅₇Bl mice of 20g body weight were used for the Lewis lung experiments.
L1210. Spleens were removed from animals 7 days after inoculation of L1210 cells and these spleens were finely minced with 1:100 isotonic saline. 0.1 ml of this spleen and leukaemia L1210 cell suspension was then injected subcutaneously into the flank of each BDF₁.

[3] = system: Lewis lung carcinoma (3LL); assay: Lewis lung carcinoma (3LL): primary tumour and lung secondaries; type: in vivo, C₅₇Bl mice; conditions: 3LL in flank; mitozantrone 3.0 mg/kg for 5 days, day 5 to 9 after implantation
Procedure: (§6) Antitumour effects. Male Swiss Schneider mice of 27g body weight were used for the sarcoma S180 experiments: female C₅₇Bl mice of 20g body weight were used for the B16 melanoma experiments; male BDF₁ mice of 30g body weight were used for the L1210 leukaemia experiments; and C₅₇Bl mice of 20g body weight were used for the Lewis lung experiments.
Lewis lung (3LL). This tumour was prepared for inoculation in a manner identical to that used for the S180 sarcoma.
This tumour metastasizes to the lungs when implanted into the flanks of mice. […]

[4] = Blood counts (Coulter counter) after mitozantrone, with and without Cronassial; type: in vivo; conditions: blood by cardiac puncture
sarcoma S180 = assay: Antitumour activity against sarcoma S180 (tumour weight); type: in vivo, Male Swiss Schneider mice; conditions: S180, host SN; VCR 0.5 mg/kg ip days 1-6; in combination CRON 200 mg/kg ip days 1-6, 6hrs before VCR; CMC-controls 1.05
Text: as §6, §4, §5

[5] = Acute vincristine toxicity in mice, with and without Cronassial; type: in vivo, Male Swiss Schneider mice
Procedure: as §1
(§7) Vincristine. A standard vial of 'Oncovin' (Eli Lilly Co.) containing 1 mg of vincristine was used. It was made up with the appropriate volume of diluting fluid to give the final concentration required to inject 0.1 ml/10 g body weight.
as §2

[6] = Acute vincristine toxicity in chicks, with and without Cronassial; type: in vivo, 48 hour old SPF chicks; conditions: for SURVIVORS AT 24hrs / SURVIVORS AT 28hrs / SURVIVORS AT 52hrs: acute, SPF 48hr chick, in combination CRON 200 mg/kg at same time
Procedure: as §1
In contrast,of those chicks which received 200 mg/kg Cronassial® at the same time as the vincristine, only 2/5 had died at 24 hours but only 1 remained alive at 28 hours.
With 4 mg/kg vincristine, 4/5 chicks survived for 24 hours but only 1/5 survived for 28 hours. The chicks which additionally, received 200 mg/kg Cronassial® survived better with 3/5 surviving to 28 hours.

melanoma B16 = assay: Antitumour activity against melanoma B16 (tumour weight); type: in vivo, female C₅₇Bl mice; conditions: B16, host C5781; VCR 0.5 mg/kg ip days 1-4,7-11; in combination CRON 200 mg/kg, 6hrs before VCR; CMC-controls 2.33
Procedure: as §6
Melanoma B16. This tumour was prepared for inoculation in a manner identical to that used for the S180 sarcoma.

[7] = Chronic vincristine toxicity in mice, with and without Cronassial; type: in vivo, Male Swiss Schneider mice; conditions: for SURVIVORS No.at 30 d / survival at 720 h: chronic, host SN; for survival at 720 h: ip, 200 mg/kg, read-out: SURVIVAL % at 30 d
Procedure: as §1, §7, §2
Giving daily injections of vincristine of 0.8 mg/kg for 5 days was close to the LD₅₀. By giving 200 mg/kg Cronassial® at the same time as the vincristine, the number of survivors at 30 days was increased to 100% Almost identical results were obtained by using 1 mg/kg vincristine, even though the drugs were administered for only 4 days. However the total dosage of vincristine administered in the two experiments (4 mg/kg) was identical. Increasing the cumulative dose of vincristine from 4 to 5 mg/kg increased the mortality of the mice to 100%. With this overwhelming toxicity, there was little or no protection offered by the Cronassial®.

[8] = chronic, first pair of Table 4: MTZ 5 ip days 1,2, in combination CRON 200 same time as MTZ
[9] = chronic, second series of Table 4: MTZ 5 ip days 1,2, in combination CRON 200 same time as MTZ
[10] = M, MTZ 4 mg/kg iv x 3, days 1.2.3, in combination CRON 200 mg/kg, mixed as one injection
[11] = L1210, host BDF1, MTZ 5 mg/kg ip days 0.1.2
[12] = L1210, host BDF1, MTZ 5 mg/kg ip days 1.2.3

O=C1c2c(O)ccc(O)c2C(=O)c2c(NCCNCCO)ccc(NCCNCCO)c21 [MTZ, mitozantrone]
SURVIVAL (mean days) [1, 8]: 9 days | SURVIVORS No.at 30 d [1, 8]: 0/6 | SURVIVAL (mean days) [1, 9]: 11 days | SURVIVORS No.at 30 d [1, 9]: 0/6 | SURVIVAL (mean days) [1, 10]: 7.8 days | SURVIVORS d.30 [1, 10]: 0/5 | SURVIVORS No.at 30 d [2]: 0/8 | SURVIVAL (mean days) ([2]; in combination CRON 200 mg/kg, CR same time MTZ): 8.8 days | SURVIVAL (mean days) (leukaemia L1210; [11]): 6.14 days | SURVIVORS No. at 60 d (leukaemia L1210; [11]): 1/8 | SURVIVAL (mean days) (leukaemia L1210; [12]): 17.1 days | SURVIVORS No. at 60 d (leukaemia L1210; [12]): 2/8 | SURVIVORS No. at 60 d (leukaemia L1210; L1210, host BDF1, MTZ 5 mg/kg ip days 3.4.5, CMC-controls 0/8): 0/8 | SURVIVAL (mean days) (leukaemia L1210; L1210, host BDF1, MTZ 5 mg/kg ip days 3.4.5, CMC-controls 8.7): 25.2 days | SURVIVORS No. at 60 d (leukaemia L1210; L1210, host DBA, MTZ 5 mg/kg ip days 2.3.4, CMC-controls 0/6): 0/6 | SURVIVAL (mean days) (leukaemia L1210; L1210, host DBA, MTZ 5 mg/kg ip days 2.3.4, CMC-controls 7.2): 16.8 days | mice died by day 14 [3]: 7/8 | MEAN VALUES OF INDIVIDUAL ANIMALS RBC x 10¹²/l ([4]; Day 5., controls 7.9): 7.3 x 10¹²/l | MEAN VALUES OF INDIVIDUAL ANIMALS WBC X 10⁹/l ([4]; Day 5, controls 9.3): 3.5 X 10⁹/l | MEAN VALUES OF INDIVIDUAL ANIMALS PLATELETS x 10⁹/l ([4]; Day 5, controls 632): 631 x 10⁹/l | MEAN VALUES OF INDIVIDUAL ANIMALS PLATELETS x 10⁹/l ([4]; Day 7): 845 x 10⁹/l | MEAN VALUES OF INDIVIDUAL ANIMALS RBC x 10¹²/l ([4]; Day 7): 7.0 x 10¹²/l | MEAN VALUES OF INDIVIDUAL ANIMALS WBC X 10⁹/l ([4]; Day 7): 2.2 X 10⁹/l | MEAN VALUES OF INDIVIDUAL ANIMALS WBC X 10⁹/l ([4]; Day 8, controls 5.2): 3.2 X 10⁹/l | MEAN VALUES OF INDIVIDUAL ANIMALS RBC x 10¹²/l ([4]; Day 8, controls 7.2): 7.1 x 10¹²/l | MEAN VALUES OF INDIVIDUAL ANIMALS PLATELETS x 10⁹/l ([4]; Day 8, controls 649): 1058 x 10⁹/l

CC[C@]1(O)C[C@H]2CN(CCc3c([nH]c4ccccc34)[C@@](C(=O)OC)(c3cc4c(cc3OC)N(C=O)[C@H]3[C@@](O)(C(=O)OC)[C@H](OC(C)=O)[C@]5(CC)C=CCN6CC[C@]43[C@@H]65)C2)C1 [VCR, vincristine]
TUMOUR WEIGHTS MEAN (sarcoma S180): 0.64 g | SURVIVORS No.at 30 d ([5]; acute, host SN, VCR 3.0 mg/kg iv day 1, in combination CRON 200 mg/kg ip day 1, 6hrs before VCR): 2/8 | survival at 720 h ([5]; mouse, in vivo, acute, host SN, VCR 3.0 mg/kg iv day 1, in combination CRON 200 mg/kg ip day 1, 6hrs before VCR, read-out: SURVIVAL % at 30 d): 25% | mortality at 720 h ([5]; mouse, in vivo, vincristine 3.0 mg/kg, one intravenous injection, Swiss Schneider mice, in combination 200 mg/kg Cronassial 6 hours before, read-out: deaths by day 30): 75% | toxicity ([6]; 48 hour old chicks, vincristine 2 mg/kg, in combination Cronassial also given): little toxicity | chicks with no acute neurotoxic signs during the first 4 hours ([6]; 48 hour old chicks, vincristine 6 mg/kg): 3/4 | dead at 24 hours ([6]; 48 hour old chicks, vincristine 6 mg/kg, in combination 200 mg/kg Cronassial at the same time): All the chicks were dead | SURVIVORS AT 24hrs ([6]; VCR 2.0 mg/kg ip day 1): 2/2 | SURVIVORS AT 28hrs ([6]; VCR 2.0 mg/kg ip day 1): 2/2 | SURVIVORS AT 52hrs ([6]; VCR 2.0 mg/kg ip day 1): 1/2 | SURVIVORS AT 24hrs ([6]; VCR 4.0 mg/kg ip day 1): 4/5 | SURVIVORS AT 28hrs ([6]; VCR 4.0 mg/kg ip day 1): 1/5 | SURVIVORS AT 52hrs ([6]; VCR 4.0 mg/kg ip day 1): 1/5 | SURVIVORS AT 24hrs ([6]; VCR 6.0 mg/kg ip day 1): 0/4 | TUMOUR WEIGHTS MEAN (melanoma B16): 1.46 g | Mean survival time (leukaemia L1210; L1210, host BDF1, VCR 1.0 mg/kg ip days 1-3, in combination CRON 200 mg/kg ip days 1-3, same time as VCR, CMC-controls 8.0): 7.8 days | SURVIVORS No.at 30 d ([7]; VCR 0.8 mg/kg ip days 1-5, in combination CRON 200 mg/kg ip days 1-5, 6hrs before VCR): 5/8 | SURVIVORS No.at 30 d ([7]; VCR 1.0 mg/kg ip days 1-4, in combination CRON 200 mg/kg ip days 1-4, 6hrs before VCR): 3/8 | SURVIVORS No.at 30 d ([7]; VCR 1.0 mg/kg ip days 1-5, in combination CRON 200 mg/kg ip days 1-5, 6hrs before VCR): 0/6 | survival at 720 h ([7]; mouse, in vivo, VCR 0.8 mg/kg ip days 1-5, in combination CRON 200 mg/kg ip days 1-5, 6hrs before VCR): 62.5% | survival at 720 h ([7]; mouse, in vivo, VCR 1.0 mg/kg ip days 1-4, in combination CRON 200 mg/kg ip days 1-4, 6hrs before VCR): 37.5% | survival at 720 h ([7]; mouse, in vivo, VCR 1.0 mg/kg ip days 1-5, in combination CRON 200 mg/kg ip days 1-5, 6hrs before VCR): 0% | mortality ([7]; mouse, in vivo, cumulative dose of vincristine 5 mg/kg, mice): 100% | LD50 ([7]; mouse, in vivo, daily injections of vincristine for 5 days, mice, read-out: LD₅₀): ~0.8 mg/kg
